Source: US20070299043A1, “Anti-scarring drug combinations and use thereof” (priority 2005, published 2007)

How the values were obtained:
[1] = tested on: Candida albicans, Trichophyton spp., Epidermophyton spp., and Aspergillus spp.; settings: cited from earlier work
[2] = in vivo; cited from earlier work
[3] = in vivo; cited from earlier work; remark: listed apart in the source
[4] = tested on: ACL injured guinea pig knees (osteoarthritis); experiment: Inhibition of cartilage damage in the ACL injured Hartley guinea pig model of osteoarthritis; format: in vivo, Hartley guinea pigs; settings: hyaluronic acid formulation; low dose (dose 1) and medium dose (dose 2); 5 weekly intra-articular injections; ten weeks after injury
Text: The skin on the right knee was sterilized. A 20G needle was introduced in the knee joint using a medial approach and the anterior cruciate ligament was cut with the sharp end of the needle.
Two weeks after the initial procedure, the animals were anesthetized with isoflurane (5% induction −2% maintenance) and weighed. […] The skin of the injured knee was sterilised. […] Injections were repeated weekly for a total of 5 injections. Sample size was N=12 for each formulation. Two doses of paclitaxel and control formulation were tested.
A final knee measurement was taken. The skin over the knee area was removed without damaging subcutaneous tissues. The knee joints were then harvested en bloc and placed into a formaldehyde (37%)/acetic acid solution (5:1 ratio) for fixation. Samples were sent to an independent laboratory for the conduct of histological preparation of joints and assessment by a pathologist for signs of cartilage damage.
Briefly knee sections were made to examine cartilage and slides were stained with H&E stain. […] Bar graphs were constructed from each group and compared.

[5] = tested on: collagenase and stromelysin; experiment: IL-1 induced collagenase and stromelysin RNA levels in chondrocytes (FIG. 4, 5); format: cell-based; settings: pretreatment
MMP-1 (collagenase-1) = experiment: IL-1 induced MMP-1 (collagenase) mRNA expression in chondrocytes, Northern blot; format: cell-based
Procedure: (§1) Cells were treated with paclitaxel at various concentrations (10^−7 to 10^−5 M) for 24 hours, then treated with IL-1β (20 ng/ml) for additional 18 hours in the presence of paclitaxel. Total RNA was isolated, and the MMP-1 mRNA levels were determined by Northern blot analysis. The blots were subsequently stripped and reprobed with ^32P-radiolabeled rat GAPDH cDNA, which was used as a housekeeping gene. […] Quantitation of collagenase-1 and stromelysin-expression mRNA levels were conducted. The MMP-1 and MMP-3 expression levels were normalized with GAPDH.

AP-1 [6] = experiment: IL-1 induced AP-1 DNA binding activity, gel mobility shift assay with chondrocyte extracts; format: cell-based; settings: chondrocytes pretreated with paclitaxel 10^−7 to 10^−5 M for 24 hours
Procedure: Binding activity was assayed with a radiolabeled human AP-1 sequence probe and gel mobility shift assay. Extracts from chondrocytes untreated or treated with various amounts of paclitaxel (10^−7to 10^−5 M) followed by IL-1β (20 ng/ml) were incubated with excess probe on ice for 30 minutes, followed by non-denaturing gel electrophoresis. The “com” lane contains excess unlabeled AP-1 oligonucleotide. The results shown are representative of three independent experiments.

AP-1 [7] = experiment: IL-1 stimulated AP-1 transcriptional activity (AP-1 driven CAT reporter gene) in transfected chondrocytes; format: cell-based; settings: paclitaxel 10^−7 to 10^−5 M, concentration dependent; IL-1 50 ng/ml, 24 hours
Procedure: Chondrocytes were transfected with constructs containing an AP-1 driven CAT reporter gene, and stimulated with IL-1, IL-1 (50 ng/ml) was added and incubated for 24 hours in the absence and presence of paclitaxel at various concentrations. […] The data noted with an asterisk (*) have significance compared with IL-1-induced CAT activity according to a t-test, P<0.05. The results shown are representative of three independent experiments.

cartilage = experiment: Hartley guinea pig knees with ACL damage, joint and cartilage score (FIG. 7, 8); format: in vivo
AP-1 [8] = experiment: IL-1 induced AP-1 binding activity in chondrocyte lysates (FIG. 3); format: cell-based; settings: lysates from chondrocytes pretreated with paclitaxel
[9] = tested on: Chick Chorioallantoic Membrane (CAM); experiment: Chick chorioallantoic membrane (CAM) angiogenesis assay; format: in vivo; settings: for Inhibition/n: 48 hours exposure
Procedure: Fertilized, domestic chick embryos were incubated for 3 days prior to shell-less culturing. In this procedure, the egg contents were emptied by removing the shell located around the air space. The interior shell membrane was then severed and the opposite end of the shell was perforated to allow the contents of the egg to gently slide out from the blunted end. The egg contents were emptied into round-bottom sterilized glass bowls and covered with petri dish covers. These were then placed into an incubator at 90% relative humidity and 3% CO2 and incubated for 3 days.
Paclitaxel (Sigma, St. Louis, […].) was mixed at concentrations of 0.25, 0.5, 1, 5, 10, 30 μg per 10 ul aliquot of 0.5% aqueous methylcellulose. […] Ten microliter aliquots of this solution were dried on parafilm for 1 hour forming disks 2 mm in diameter. The dried disks containing paclitaxel were then carefully placed at the growing edge of each CAM at day 6 of incubation. Controls were obtained by placing paclitaxel-free methylcellulose disks on the CAMs over the same time course. After a 2 day exposure (day 8 of incubation) the vasculature was examined with the aid of a stereomicroscope. Liposyn II, a white opaque solution, was injected into the CAM to increase the visibility of the vascular details. The vasculature of unstained, living embryos were imaged using a Zeiss stereomicroscope which was interfaced with a video camera (Dage-MTI Inc., Michigan City, Ind.). […] Image negatives were then made on a graphics recorder (Model 3000; Matrix Instruments, Orangeburg, N.Y.).
The membranes of the 8 day-old shell-less embryo were flooded with 2% glutaraldehyde in 0.1 M sodium cacodylate buffer; additional fixative was injected under the CAM. After 10 minutes in situ, the CAM was removed and placed into fresh fixative for 2 hours at room temperature. The tissue was then washed overnight in cacodylate buffer containing 6% sucrose. The areas of interest were postfixed in 1% osmium tetroxide for 1.5 hours at 4° C. The tissues were then dehydrated in a graded series of ethanols, solvent exchanged with propylene oxide, and embedded in Spurr resin. Thin sections were cut with a diamond knife, placed on copper grids, stained, and examined in a Joel 1200EX electron microscope. Similarly, […] sections were cut and stained with […] for light microscopy.
At day 11 of development, chick embryos were used for the corrosion casting technique. Mercox resin (Ted Pella, Inc., Redding, Calif.) was injected into the CAM vasculature using a 30-gauge hypodermic needle. […] After injection, the plastic was allowed to sit in situ for an hour at room temperature and then overnight in an oven at 65° C. The CAM was then placed in 50% aqueous solution of sodium hydroxide to digest all organic components. The plastic casts were washed extensively in distilled water, air-dried, coated with gold/palladium, and viewed with the Philips 501B scanning electron microscope.
After 48 hours exposure to paclitaxel at concentrations of 0.25, 0.5, 1, 5, 10, or 30 μg, each CAM was examined under living conditions with a stereomicroscope equipped with a video/computer interface in order to evaluate the effects on angiogenesis. This imaging setup was used at a magnification of 160× which permitted the direct visualization of blood cells within the capillaries; thereby blood flow in areas of interest may be easily assessed and recorded. For this study, the inhibition of angiogenesis was defined as an area of the CAM (measuring 2-6 mm in diameter) lacking a capillary network and vascular blood flow. Throughout the experiments, avascular zones were assessed on a 4 point avascular gradient (see the table below). This scale represents the degree of overall inhibition with maximal inhibition represented as a 3 on the avascular gradient scale. Paclitaxel was very consistent and induced a maximal avascular zone (6 mm in diameter or a 3 on the avascular gradient scale) within 48 hours depending on its concentration. […]

MMP-3 (stromelysin) = experiment: IL-1 induced MMP-3 (stromelysin) mRNA expression in chondrocytes, Northern blot; format: cell-based
Procedure: as §1

[10] = tested on: knee joint (synovial cavity); experiment: Maximum tolerated dose (MTD) of a drug after intra-articular injection; settings: for MTD (dose for which knee inflammation was not observed): 0.1 mL intra-articular
Procedure: Male Hartley guinea pigs, at least 6 weeks old, were anaesthetized using 5% isoflurane in an enclosed chamber. The animals were weighed and then transferred to the surgical table where anesthesia was maintained by nose cone with 2% isoflurane. The knee area on both legs was shaved and knee width at the head of the femur was measured on both knees. The skin on the right knee was sterilized. A 25G needle was introduced into the synovial cavity using a medial approach and 0.1 mL of the test formulation was injected. Three or seven days after the injection, the animals were sacrificed by cardiac injection of 0.7 mL Euthanyl under deep anesthesia (5% isoflurane). Sample size was N=3 for each formulation.
Knee function was assessed before sacrifice by recording changes in walking behavior and signs of tenderness. The animal was weighed immediately after sacrifice. The width of both knees at the head of the femur was then measured with calipers. The knee joint was dissected open by transecting the quadriceps tendon, cutting through the lateral and medial articular capsule and flipping the patella over the tibia. Knee inflammation was assessed by recording signs of swelling, vascularization, fluid accumulation and change in color in subcutaneous tissue as well as inner joint structures. Photographs were taken to document findings. All data was recorded by observers blinded to the treatment groups.

endo-exonuclease = settings: PCT Publication No. WO 01/35935; cited from earlier work
[11] = tested on: phosphatases of regenerating liver (PRL); settings: cited from earlier work
[12] = target: protein tyrosine phosphatase 1B (PTP1B) (Homo sapiens, UniProt P18031); settings: cited from earlier work
[13] = tested on: Candida spp., Aspergillus spp., Sporothrix schenckii, Penicillium marneffei, Malassezia furfur, Cryptococcus neoformans, Trichosporon spp. and …; settings: against most of the listed species; cited from earlier work
[14] = 10^−5 M paclitaxel, pretreatment 24 hours

protein tyrosine phosphatase 1B (PTP1B), sequence (P18031 whole entry): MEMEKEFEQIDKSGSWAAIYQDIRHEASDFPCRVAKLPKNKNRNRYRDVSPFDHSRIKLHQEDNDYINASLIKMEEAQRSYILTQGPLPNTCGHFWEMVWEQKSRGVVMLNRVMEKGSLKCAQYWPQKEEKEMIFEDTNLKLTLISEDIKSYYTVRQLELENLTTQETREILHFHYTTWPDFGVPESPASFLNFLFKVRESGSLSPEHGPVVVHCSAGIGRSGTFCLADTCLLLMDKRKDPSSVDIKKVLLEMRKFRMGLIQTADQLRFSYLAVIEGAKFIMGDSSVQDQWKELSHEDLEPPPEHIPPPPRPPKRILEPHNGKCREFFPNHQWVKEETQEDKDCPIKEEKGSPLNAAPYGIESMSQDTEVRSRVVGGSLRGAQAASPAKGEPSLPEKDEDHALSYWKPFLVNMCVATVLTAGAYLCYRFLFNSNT

Cc1cc(C2CCCCC2)n(O)c(=O)c1 [Ciclopirox, ciclopirox]
antifungal activity [1]: fungistatic and fungicidal

CN(C)/N=N/c1[nH]cnc1C(N)=O [Dacarbazine, dacarbazine]
absorption from the GI tract [2]: poorly absorbed

O=C(Nc1ccc([N+](=O)[O-])cc1Cl)c1cc(Cl)ccc1O [Niclosamide, niclosamide]
toxicity in mammals [3]: very low toxicity

CC(=O)O[C@H]1C(=O)[C@@]2(C)[C@H]([C@H](OC(=O)c3ccccc3)[C@]3(O)C[C@H](OC(=O)[C@H](O)[C@@H](NC(=O)c4ccccc4)c4ccccc4)C(C)=C1C3(C)C)[C@]1(OC(C)=O)CO[C@@H]1C[C@@H]2O [paclitaxel]
cartilage damage (pathologist score) [4]: statistical reduction in cartilage damage relative to control | IL-1 induction of collagenase and stromelysin RNA levels [5]: can be inhibited | IL-1 induced collagenase mRNA levels (MMP-1 (collagenase-1); [14]): complete inhibition | concentration capable of inhibiting collagenase expression in vitro (MMP-1 (collagenase-1); chondrocytes): 10^−6 M | IL-1 induced AP-1 binding to oligonucleotides (AP-1 [6]): IL-1 induced binding activity decreased | IL-1 induced AP-1 reporter gene CAT activity (AP-1 [7]): reduced IL-1 induced AP-1 reporter gene CAT activity | average rank of joint scores, dose response trend (cartilage; Hartley guinea pig knees with ACL damage, p<0.02): statistically significant | cartilage in knee cross section (cartilage; dose 1 (low dose)): fraying of cartilage | cartilage in knee cross section (cartilage; dose 2 (medium dose)): minor defects to cartilage | IL-1 induced binding activity (AP-1 [8]): decreased | Inhibition/n ([9]; 0.25 ug in methylcellulose (10 ul)): 2/11 | Inhibition/n ([9]; 0.5 ug in methylcellulose (10 ul)): 6/11 | Inhibition/n ([9]; 1 ug in methylcellulose (10 ul)): 6/15 | Inhibition/n ([9]; 5 ug in methylcellulose (10 ul)): 20/27 | Inhibition/n ([9]; 10 ug in methylcellulose (10 ul)): 16/21 | Inhibition/n ([9]; 30 ug in methylcellulose (10 ul)): 31/31 | maximal avascular zone on the avascular gradient scale ([9]; within 48 hours depending on concentration): 3 | IL-1 induced stromelysin mRNA levels (MMP-3 (stromelysin); [14]): complete inhibition | concentration capable of inhibiting stromelysin expression in vitro (MMP-3 (stromelysin); chondrocytes): 10^−6 M | MTD (dose for which knee inflammation was not observed) ([10]; co-solvent formulation, 3 day evaluation): 1.5 mg/mL | MTD (dose for which knee inflammation was not observed) ([10]; triblock gel formulation according to Example 34, evaluation at 7 days): 0.075 mg/mL | tolerated doses ([10]; triblock gel formulation, evaluation after three days): up to 0.15 mg/ml

N=C(N)c1ccc(OCCCCCOc2ccc(C(=N)N)cc2)cc1 [pentamidine]
inhibition of the activity of endo-exonuclease (endo-exonuclease): inhibit the activity | inhibition of oncogenic phosphatases of regenerating liver [11]: potent inhibitor | inhibition of PTP1B [12]: effective inhibitor

CN(C/C=C/C#CC(C)(C)C)Cc1cccc2ccccc12.Cl [terbinafine, terbinafine hydrochloride]
in vitro antifungal activity [13]: has activity
